The target of test [1] is T1, Ephrin type-A receptor 4 [29-209] (Homo sapiens, UniProt P54764).
T1 construct: 29-209
The experiment in a line: Fluorescence Polarization Assay. The settings on record: pH 7.2; 25 °C. As to the method: For competitive binding assays, 1 mL of […] EphA4-LBD was pre-incubated with the tested compounds at various concentrations in 98 mL of PBS (pH 7.2) in 96-well black plates at roomtemperature for 10 min, after which 1 mL of 500 mMFITC-labeled EphA4 peptide was added to produce a final volume of […].

Test [2] concerns the target T1, Ephrin type-A receptor 4 [29-209]. The experiment in a line: Isothermal Titration Calorimetry (ITC). The settings on record: pH 6.5; 27 °C. The procedure:
(§1) The purified EphA proteins (EphA4-LBD, EphA3-LBD, and EphA2-LBD) were dissolved in 50 mM potassium phosphate buffer (pH 6.5) containing 100 mM NaCl. Compound binding was detected at 27 °C by comparing either the 2D-[15N,1H]-HSQC or 2D-[13C,1H]-HSQC spectra of 50 mMEphA4-LBD in absence and presence of compounds at 50 mM. ITC were measured with Model ITC200 from Microcal/GE Life Sciences.
In general terms: Isothermal titration calorimetry measures the heat released or taken up as one component is titrated into another.

The target of test [3] is T2, Ephrin type-A receptor 3 [29-207] (Homo sapiens, UniProt P29320).
T2 construct: 29-207
T2 sequence (P29320 whole entry): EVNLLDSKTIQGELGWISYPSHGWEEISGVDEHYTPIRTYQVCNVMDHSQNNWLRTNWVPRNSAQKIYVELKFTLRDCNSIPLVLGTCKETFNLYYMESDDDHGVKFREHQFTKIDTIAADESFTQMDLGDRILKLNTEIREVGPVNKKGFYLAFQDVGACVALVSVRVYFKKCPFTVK
The test can be described thus: Isothermal Titration Calorimetry (ITC). The conditions noted are these: pH 6.5; 27 °C. As to the method: as §1

Structures are written as SMILES. Where a SMILES comes first, the peptide text is derived from it. [ ]: non-standard residue; d: D form. Trp(5-OH) = N[C@@H](Cc1c[nH]c2ccc(O)cc12)C(=O)O; Phe(4-Cl) = N[C@@H](Cc1ccc(Cl)cc1)C(=O)O; 4Pal = N[C@@H](Cc1ccncc1)C(=O)O; Ava = NCCCCC(=O)O; GABA = NCCCC(=O)O

T1 sequence (P54764 29-209): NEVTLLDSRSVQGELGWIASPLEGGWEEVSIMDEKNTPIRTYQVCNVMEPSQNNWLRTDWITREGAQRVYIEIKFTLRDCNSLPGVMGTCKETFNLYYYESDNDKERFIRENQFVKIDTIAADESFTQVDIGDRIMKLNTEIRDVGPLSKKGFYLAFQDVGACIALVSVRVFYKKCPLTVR

With `NCCC(=O)N[C@@H](Cc1c[nH]c2ccc(O)cc12)C(=O)N[C@@H](Cc1ccc(Cl)cc1)C(=O)N[C@@H](Cc1ccncc1)C(=O)N[C@H](Cc1ccncc1)C(N)=O` [120G1], the Ki (in general, a dissociation constant, usually derived from enzyme kinetics or from competition with a known ligand) in test [1] is 14000 nM. In test [1], `CC(C)(N)C(C)(C)C(=O)N[C@@H](Cc1c[nH]c2ccc(O)cc12)C(=O)N[C@@H](Cc1ccc(Cl)cc1)C(=O)N[C@@H](Cc1ccncc1)C(=O)N[C@H](Cc1ccncc1)C(N)=O` [120G2] gave a Ki of over 100000 nM. Same read-out and setting: next, `NCCCC(=O)N[C@@H](Cc1c[nH]c2ccc(O)cc12)C(=O)N[C@@H](Cc1ccc(Cl)cc1)C(=O)N[C@@H](Cc1ccncc1)C(=O)N[C@H](Cc1c[nH]c2ccccc12)C(N)=O` [120H10] (H-[GABA][Trp(5-OH)][Phe(4-Cl)][4Pal][dW]-NH2): 960 nM; `NCCCCC(=O)N[C@@H](Cc1c[nH]c2ccc(O)cc12)C(=O)N[C@@H](Cc1ccc(Cl)cc1)C(=O)N[C@@H](Cc1ccncc1)C(=O)N[C@H](Cc1c[nH]c2ccccc12)C(N)=O` [123B1] (H-[Ava][Trp(5-OH)][Phe(4-Cl)][4Pal][dW]-NH2): 3040 nM. On to `NCCCC(=O)N[C@@H](Cc1c[nH]c2ccc(O)cc12)C(=O)N[C@@H](Cc1ccc(Cl)cc1)C(=O)N[C@@H](Cc1ccncc1)C(=O)NCCc1c[nH]c2ccccc12` [123C2], for which the Kd (usually the equilibrium constant for the complex coming apart) in test [2] turned out to be 1100 nM. The affinity in test [1], expressed as Ki, was 1590 nM. Take `NCCCC(=O)N[C@@H](Cc1c[nH]c2ccc(O)cc12)C(=O)N[C@@H](Cc1ccc(Cl)cc1)C(=O)N[C@@H](Cc1ccncc1)C(=O)NCCc1c[nH]c2ccc(F)cc12` [123C3]: the inhibition constant Ki in test [1] worked out at 2220 nM. As to `COc1ccc2[nH]cc(CCNC(=O)[C@H](Cc3ccncc3)NC(=O)[C@H](Cc3ccc(Cl)cc3)NC(=O)[C@H](Cc3c[nH]c4ccc(O)cc34)NC(=O)CCCN)c2c1` [123C4], the Kd in test [3] is 4550 nM.

Regarding `NCCCC(=O)N[C@@H](Cc1c[nH]c2ccc(O)cc12)C(=O)N[C@@H](Cc1ccc(Cl)cc1)C(=O)N[C@@H](Cc1ccncc1)C(=O)NCCc1c[nH]c2ccc(O)cc12` [123C5], binding in test [2] was characterised by a dissociation constant (Kd) of 2200 nM. This molecule came in with a Ki in test [1] of 2570 nM. In test [1], `NCCCC(=O)N[C@@H](Cc1c[nH]c2ccc(O)cc12)C(=O)N[C@@H](Cc1ccc(Cl)cc1)C(=O)N[C@@H](Cc1ccncc1)C(=O)NCCc1c[nH]c2ccc(Cl)cc12` [123C6] came in with an inhibitory constant (Ki) of 3140 nM. In turn, `COc1ccc2c(CCNC(=O)[C@H](Cc3ccncc3)NC(=O)[C@H](Cc3ccc(Cl)cc3)NC(=O)[C@H](Cc3c[nH]c4ccc(O)cc34)NC(=O)CCCN)c[nH]c2c1` [123C7] registered a dissociation constant Kd in test [2] of 540 nM. Besides, the Ki in test [1] worked out at 1590 nM. As to `NCCCC(=O)N[C@@H](Cc1c[nH]c2ccc(O)cc12)C(=O)N[C@@H](Cc1ccc(Cl)cc1)C(=O)N[C@@H](Cc1ccncc1)C(=O)NCCc1cccc2ccccc12` [123C12], the inhibition constant Ki in test [1] is 7670 nM.

Molecule `NCCC(=O)N[C@@H](Cc1c[nH]c2ccc(O)cc12)C(=O)N[C@@H](Cc1ccc(Cl)cc1)C(=O)N[C@@H](Cc1ccncc1)C(=O)N[C@H](Cc1c[nH]c2ccccc12)C(N)=O` [EphA4-LBC inhibitor, Compound 22] returned a dissociation constant Kd in test [2] of 1200 nM. Besides, the Ki in test [1] was 2140 nM.

For the origin of these results see BindingDB's records for doi:10.1016/j.chembiol.2017.01.006 (Sanford Burnham Prebys Medical Discovery Institute, 2017).
